US8232278B2 (Gilead Sciences, Inc., priority 2005, dated 2012)
Several values for one entry are separate records, joined by “and”; a condition that tells them apart may be missing. Identical values can stand only once. Like-named read-outs stand apart in the source and are kept apart here.

How the values were obtained:
[1] = tested on: Huh-7 HCV replicon cells; test: CC50 assay in Huh-7 HCV replicon cells (CellTiter-Glo); type: cell-based, human; conditions: 3 days, 50% cytostatic concentration
Experimental: (§1) The anti-HCV activity of the pyrido[3,2-d]pyrimidine derivatives of this invention was tested in a human hepatoma Huh-7 cell line harbouring a HCV replicon. The assay comprised the following steps:
(§2) Step 1: Compound Preparation and Serial Dilution
(§3) • 1. for water soluble pyrido[3,2-d]pyrimidine derivatives, a volume of 500 μL of solution in cell media (DMEM, 10% FBS, P/S, L-Glutamine) was prepared with a concentration being twice the concentration of the starting final serial dilution concentration. […] The rest of the plate, columns 2-12, was filled with 100 μL of cell media. The plate was then placed on a Precision 2000 Workstation to start the serial dilution. Compounds were diluted three times each step from column 1 to column 10. Column 11 was used as a blank control (no compound added). • 2. for pyrido[3,2-d]pyrimidine derivatives requiring DMSO to dissolve, serial dilution is performed in 50% DMSO in a 384-well plate. A solution containing a compound at 100-fold concentration of the starting final serial dilution concentration was prepared in 50% DMSO and added to the pre-specified wells in column 1 of a polypropylene 384-well plate. The plate was then placed on a Precision 2000 Workstation to start the serial dilution. After the serial dilution, a volume of 2 μL of the solution was transferred from the 384-well plate to a 96-well cell culture plate containing 100 μL of cell media on a Biomek FX Workstation. The DMSO concentration in the final assay condition was 0.5% after cells are added to the plate and the total volume in each well is brought to 200 μL. Step 2: to each well of the serial dilution plate prepared above, 100 μL of cell media containing 6000 suspended Huh-7 HCV replicon cells was added with a Multidrop workstation. The plates were incubated for 3 days at 37° C. with 5% CO2. Step 3: Detection: • a) for the EC50 assay, the media in a 96-well cell culture plate was aspirated with a Biotek EL405 plate-washer. A volume of 200 μL of a solution containing a 1:1 mixture of cell-lysis buffer (Promega, Luciferase Cell Culture Lysis 5× Reagent, cat. #E1531) and luciferase substrate solution (Promega, Luciferase Assay, cat. #E4550) was added to each well of the plate with Multidrop.
(§4) Results in table 7 are expressed by the following data: • the 50% effective concentration (EC50), i.e. the concentration that protects 50% of the cell monolayer from virus-induced cythopathic effect, and • the 50% cytostatic concentration (CC50), i.e. the concentration that results in 50% inhibition of cell growth. Table 7 further indicates the nature of substituents being present in positions 2, 4 and 6 of the pyrido[3,2-d]pyrimidine derivatives of the invention.

[2] = tested on: HCV replicon; test: Anti-HCV assay / replicon assay (EC50, luciferase read-out); type: cell-based, hepatitis C virus (HCV); conditions: for CC50/EC50: CC50/EC50 ratio (selectivity index); for EC50: human hepatoma Huh-7 cell line harbouring a HCV replicon, 3 days, luciferase luminescence, read-out: EC50
Experimental: as §1, §2, §3, §4

SMILES	CC50 [1]	CC50/EC50 [2]	EC50 [2] [µM]	EC50 ([2]; Hepatitis C virus, 72 h) [µM]
Nc1nc(N2CCN(C(=O)COc3ccc(Cl)cc3)CC2)c2nc(-c3ccc(F)cc3)ccc2n1 [Example 201, 2-amino-4-[(N-4-chloro-phenoxy-acetyl)-piperazin-1-yl]-6-(4-fluorophenyl)-pyrido[3,2-d]pyrimidine]	25.1 µM	558	0.045	–
CCCOc1nc(N)nc2ccc(-c3ccccc3F)nc12 [Example 282, 2-amino-4-n-propoxy-6-(o-fluorophenyl)-pyrido[3,2-d]pyrimidine]	50.1 µM	89	–	0.56
CCCCCOc1nc(N)nc2ccc(-c3ccccc3F)nc12 [Example 297, 2-amino-4-n-pentyloxy-6-(o-fluorophenyl)pyrido[3,2-d]-pyrimidine]	50.1 µM	66	–	0.76
CCOc1nc(N)nc2ccc(-c3ccc(OC)c(OC)c3)nc12 [Example 307, 2-amino-4-ethoxy-6-(3,4-dimethoxy)pyrido[3,2-d]pyrimidine]	50.1 µM	264	0.19	–
N#Cc1ccc(-c2ccc3nc(N)nc(N4CCN(C(=O)COc5ccc(Cl)cc5)CC4)c3n2)cc1 [Example 378, 2-amino-4-[N-(4-chlorophenoxyacetyl)piperazin-1-yl]-6-(4-cyanophenyl)pyrido-[3,2-d]pyrimidine]	4.3 µM	571	0.008	–
Nc1nc(N2CCN(C(=O)COc3ccc(Cl)cc3)CC2)c2nc(-c3ccc(C(F)(F)F)cc3)ccc2n1 [Example 379, 2-amino-4-[N-(4-chlorophenoxyacetyl)piperazin-1-yl]-6-(4-trifluoromethylphenyl)-pyrido-[3,2-d]pyrimidine]	21.6 µM	287	0.075	–
Nc1nc(N2CCN(C(=O)COc3ccc(Cl)cc3)CC2)c2nc(-c3ccoc3)ccc2n1 [Example 381, 2-amino-4-[N-(4-chlorophenoxyacetyl)piperazin-1-yl]-6-(furan-3-yl)pyrido-[3,2-d]pyrimidine]	9.1 µM	149	0.061	–
Nc1nc(N2CCN(C(=O)COc3ccc(Cl)cc3)CC2)c2nc(-c3ccsc3)ccc2n1 [Example 382, 2-amino-4-[N-(4-chlorophenoxyacetyl)piperazin-1-yl]-6-(thiophen-3-yl)pyrido-[3,2-d]pyrimidine]	13.1 µM	1523	0.009	–
Nc1nc(N2CCN(C(=O)COc3ccc(Cl)cc3)CC2)c2nc(-c3ccc(Cl)cc3)ccc2n1 [Example 384, 2-amino-4-[N-(4-chlorophenoxyacetyl)piperazin-1-yl]-6-(4-chlorophenyl)pyrido-[3,2-d]pyrimidine]	12.2 µM and 7.9 µM	231 and 148	0.053	–
Nc1nc(N2CCN(C(=O)COc3ccc(Cl)cc3)CC2)c2nc(-c3cccc(Cl)c3)ccc2n1 [Example 385, 2-amino-4-[N-(4-chlorophenoxyacetyl)piperazin-1-yl]-6-(3-chlorophenyl)pyrido-[3,2-d]pyrimidine]	7.4 µM	122	0.061	–
Nc1nc(N2CCN(C(=O)COc3ccc(Cl)cc3)CC2)c2nc(-c3ccncc3)ccc2n1 [Example 386, 2-amino-4-[N-(4-chlorophenoxyacetyl)piperazin-1-yl]-6-(pyridin-4-yl)pyrido-[3,2-d]pyrimidine]	6 µM	4585	0.001	–
Nc1nc(N2CCN(C(=O)COc3ccc(Cl)cc3)CC2)c2nc(-c3ccc(F)c(Cl)c3)ccc2n1 [Example 387, 2-amino-4-[N-(4-chlorophenoxyacetyl)piperazin-1-yl]-6-(3-chloro-4-fluorophenyl)-pyrido-[3,2-d]pyrimidine]	5.9 µM	280	0.021	–
Cc1cccc(NC(=O)N2CCN(c3nc(N)nc4ccc(-c5ccccc5)nc34)CC2)c1 [Example 389, 2-amino-4-[N-(3-methyl-phenyl-carbamoyl)-piperazin-1-yl]-6-phenyl-pyrido[3,2-d]pyrimidine]	4.2 µM	200	0.021	–
